System: virgin females of Heliothis virescens
Experiment: Pheromonotropic assay (injection)
Assay type: in vivo
Method: Pupae of H. virescens were obtained from a laboratory colony maintained at the Insect Attractants, Behavior and Basic Biology Research Laboratory, USDA-ARS, in Gainesville, Fla. The pupae were separated by sex and the males were discarded. After eclosion, the females were held in 4-1 cages and provided with cotton wicks soaked with 5% sucrose solution. The insects were held at 25°±2° C, 65±3% relative humidity with a 12:12 (L:D) photoperiod. Virgin females were used for bioassays 2 and 3 days after eclosion during the 7th-8th hour of the photophase when endogenous levels of pheromone are very low (Abernathy, 1995, Regulation of sex pheromone production and oviposition in virgin females of noctuid moths, doctoral dissertation, University of Florida, Gainesville, Fla., pp. 1-107).
Pheromone biosynthesis neuropeptide from H. zea (Hez--PBAN) and the carboranyl pseudopeptide Cbe--Thr--Pro--Arg--Leu--NH2 were dissolved in physiological saline (Christensen et al., 1991, Proc. Natl. Acad. Sci. USA, 88:4971-4975). Female H. virescens insects were injected through the side of the third abdominal segment using a 26-ga needle with 20 μl of the above solutions. Each female received a dose of 0.01, 0.03, 0.1, 0.3, 1, 3, 10, 30, 100 or 300 pmol. After 1 h of incubation, the terminal abdominal segments, which contain the pheromone gland, were excised and placed in 10 μl of hexane containing 10 ng each of internal standards (octadecane and nonadecane) used for quantitation and calculation of relative retention indices. The pheromone gland extracts were analyzed for the amount of (Z)-11-hexadecenal (Z11-16:AL), the major sex pheromone component of H. virescens (Klun et al., 1980, J. Chem. Ecol., 6:165-175) by capillary gas chromatography. Hewlett-Packard 5890 gas chromatographs were equipped with splitless injectors, flame ionization detectors, and 30 m×0.25 mm (i.d.) fused silica "SPB 10" (polar) or "SPB1" (apolar) columns (Supelco). Conditions of chromatography were as follows: initial temperature=60° C.; injector operated in the splitless mode for 0.5 min; oven temperature increased by 30° C./min after 1 min; final temperature=190° C. ("SPB10") or 200° C. ("SPB1"); helium carrier gas at a linear flow velocity of 18 cm/s. A Nelson Analytical 3000° acquisition system (Cupertino, Calif.) was used to collect and analyze the data (Teal et al., 1989, Proc. Natl. Acad. Sci. USA, 86:2488-2492).
After the dose response of Hez--PBAN was completed, the […] dose was chosen to use for comparison with the carboranyl pseudopeptide assayed here. Insects were also injected with saline alone as a control. The pseudopeptide was prepared by dilution with saline as described above. Based on the dose-response for the activity of Hez--PBAN, […] were chosen to assess the pheromonotropic activity of the carboranyl pseudopeptide. Females were injected with 20 μl containing 0.01, 0.03, 0.1, 0.3, 1, 3, 10, 30, 100, or 300 pmol. Each bioassay consisted of one dose of several different peptides along with saline and Hez--PBAN controls. The amount of pheromone present in extracts of the pheromone glands of females from each group was compared with that produced by females injected with 5 pmol of Hez--PBAN during that particular bioassay. After all the bioassays were completed, the amount of pheromone produced by each insect was calculated as a percentage of the amount of pheromone produced by females treated with Hez--PBAN. Data were analyzed using one-way ANOVA and t-test with "STATVIEW" software. Variability was reported as SEM.
The pheromonotropic activity of Hez--PBAN, Lom--MT--II and [6--Pha--Ala^0 ]Lom--MT--II was first determined by a series of injection bioassays. Peptides were dissolved in physiological saline (Christensen et al., ibid) and diluted to concentrations of 0.003, 0.01, 0.03, 0.1, 0.3, 1.0, 3.0 and 10.0 pmol/μl. Insects were injected through the side of the 3rd abdominal segment using a 26 ga. needle with 20 μl of the above solutions. […]

Cbe--Thr--Pro--Arg--Leu--NH2 was tested. Which “potency relative to 33-membered HezPBAN, injection” value (H. virescens) did it give?
Its value is 10 fold.

What about the “ED50, pheromone production following injection” value (H. virescens females, FIG. 3) of the same substance?
Its value is 0.1 pmoles/female.

What about the “ED50, pheromone production via injection” value (H. virescens females, glands extracted 60 min after injection) of the same substance?
Its value is 0.1 pmol.

And the “dose eliciting a 100% response, injection” value (H. virescens, FIG. 3)?
The value was 2.5 pmoles/female.

What about the “potency relative to 33-membered HezPBAN, injection” value (H. virescens, listed as carboranyl analog) of the same substance?
Its value is “equipotent”.

And the “Maximal Response via injection (dose)” value (maximal pheromone production relative to 5 pmoles PBAN via injection)?
Its value is 2.5 pmol.

— patent US5795857A, “Mimetic insect pyrokinin analogs for insect control” (The United States of America as represented by the …, priority 1996, dated 1998)
